From patent EP2891655A1, “Anilides-alkylthioethers as ACAT inhibitors for the treatment de dermatological diseases” (PIERRE FABRE MEDICAMENT, priority 2011, dated 2012)

How the values were obtained:
ACAT [1] = assay: ACAT activity, intact HepG2 cells (method of Chautan et al.); type: cell-based, humaines
Excerpt: (§1) Les expérimentations utilisent la méthode de Chautan M. et coll., (Anal. Biochem. 1988) afin de déterminer l'activité ACAT. Les activités sont exprimées en concentrations inhibitrices à 50% (CI50), l'unité est le nM. Deux types de préparations enzymatiques ont été utilisés pour analyser l'activité putative des composés : microsomes hépatiques de rat et cellules humaines intactes HepG2. Les microsomes sont obtenus à partir de fractionnement subcellulaire utilisant une étape d'homogénéisation puis une étape d'ultracentrifugation. Le dosage de l'activité ACAT est réalisé par incubation des microsomes hépatiques ou des cellules avec le composé d'intérêt ainsi que le précurseur radiomarqué. La séparation du produit de la réaction à partir du milieu d'incubation acellulaire ou cellulaire est réalisée par élution sur colonne de silice; le cholesteryl-oléate formé est ensuite quantifié en radioanalyse.

ACAT [2] = assay: ACAT activity, rat liver microsomes (method of Chautan et al.); type: biochemical; details: radiolabelled precursor, cholesteryl-oléate formed quantified, read-out: microsomes CI50
Excerpt: as §1

ACAT [3] = assay: ACAT inhibition in vivo: plasma cholesterol in rats on a hypercholesterolemic diet; details: oral route, 4 days of hypercholesterolemic diet with simultaneous treatment, plasma cholesterol on day 5 (colorimetric)
Excerpt: Les rats sont soumis à un régime alimentaire hypercholestérolémique pendant 4 jours. Les animaux sont traités simultanément par voie orale avec les différentes molécules. Le cinquième jour les animaux sont euthanasiés et la variation des taux de cholestérol plasmatique circulant analysée par méthode colorimétrique. Les activités sont exprimées en doses efficaces à 50% (DE50), l'unité est le mg/kg.

procollagène de type 1 = details: protein level and mRNA; cited from earlier work
glandes sébacées = details: primate, chronic treatment; cited from earlier work
[4] = intact human HepG2 cells; radiolabelled precursor, cholesteryl-oléate formed quantified; read-out: HepG2 CI50
[5] = read-out: HepG2 CI50; intact human HepG2 cells; radiolabelled precursor, cholesteryl-oléate formed quantified

IC50 (ACAT [1]; [4]) [nM]	IC50 (ACAT [2]) [nM]	Structure (SMILES)	Etude in vivo chez le rat DE50 (ACAT [3]) [mg/kg]	IC50 (ACAT [1]; [5]) [nM]	procollagène de type 1 (procollagène de type 1)	effet secondaire sur les glandes sébacées (glandes sébacées)
47	47	CCCCCCCCCCCCSC(C)(C)C(=O)N1CCCCC1C(=O)Nc1cc(C)c(O)c(C)c1C (stereo not shown) [Exemple 1, 1-(2-(dodécylthio)-2-méthylpropanoyl)-N-(4-hydroxy-2,3,5-triméthyl-phényl)pipéridine-2-carboxamide]	0.63			
48	81	CCCCCCCCCCCCSC(C)(C)C(=O)N1CCCC1C(=O)Nc1cc(C)c(O)c(C)c1C (stereo not shown) [Exemple 2, 1-(2-(dodécylthio)-2-méthylpropanoyl)-N-(4-hydroxy-2,3,5-triméthyl-phényl)-pyrrolidine-2-carboxamide]	<0.63			
34	18	CCCCCCCCCCCCSC(C)(C)C(=O)N1CCC[C@H]1C(=O)Nc1cc(C)c(O)c(C)c1C [Exemple 3, (S)-1-(2-(dodécylthio)-2-méthylpropanoyl)-N-(4-hydroxy-2,3,5-triméthyl-phényl)pyrrolidine-2-carboxamide]	<0.63			
		CCCCCCCCCCSC(C)(C)C(=O)N1CCC[C@H]1C(=O)Nc1cc(C)c(O)c(C)c1C [Exemple 4, (S)-1-(2-(décylthio)-2-méthylpropanoyl)-N-(4-hydroxy-2,3,5-triméthyl-phényl)-pyrrolidine-2-carboxamide]	0.63			
39	34	CCCCCCCCCCCCSC(C)(C)C(=O)N1CSC[C@H]1C(=O)Nc1cc(C)c(O)c(C)c1C [Exemple 5, (R)-3-(2-(dodécylthio)-2-méthylpropanoyl)-N-(4-hydroxy-2,3,5-triméthyl-phényl)thiazolidine-4-carboxamide]	<0.63			
27	71	CCCCCCCCCCCCSC(C(=O)Nc1cc(C)c(O)c(C)c1C)c1ccsc1 (stereo not shown) [Exemple 6, 2-(dodécylthio)-N-(4-hydroxy-2,3,5-triméthylphényl)-2-(thiophén-3-yl)acétamide]	0.17			
		CSc1cc(C)nc(SC)c1NC(=O)CN1CCN(CCSc2nc3ccccc3[nH]2)CC1 [K-604]			augmentation de procollagène de type 1	
		CC(C)c1cccc(C(C)C)c1NC(=O)NCC1(c2ccc(N(C)C)cc2)CCCC1.Cl [PD 132301-2]				atrophie des glandes sébacées
		CCCCCCCCN1CCc2c(C)c(CC(=O)O)c(C)c(NC(=O)C(C)(C)C)c21 [pactimibe]			n'ont pas cette propriété	

Structure (SMILES)	IC50 (ACAT [1]; [4]) [nM]	IC50 (ACAT [2]) [nM]	Etude in vivo chez le rat DE50 (ACAT [3]) [mg/kg]	IC50 (ACAT [1]; [5]) [nM]	procollagène de type 1 (procollagène de type 1)	effet secondaire sur les glandes sébacées (glandes sébacées)
CCCCCCCCCCCCSC(C(=O)Nc1c(C)c(C)c(N)c(C)c1C)c1ccsc1 (stereo not shown) [Exemple 7, chlorhydrate du N-(4-amino-2,3,5,6-tétraméthylphényl)-2-(dodécylthio)-2-(thiophén-3-yl)acétamide]		41	0.16	93		
CCCCCCCCCCCCSC(C(=O)Nc1c(C)c(C)c(N)c(C)c1C)c1cccs1 (stereo not shown) [Exemple 8, chlorhydrate du N-(4-amino-2,3,5,6-tétraméthylphényl)-2-(dodécylthio)-2-(thiophén-2-yl)acétamide]		69	0.26	38		
